Test results reported in PubChem BioAssay (NCI).
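Dose response: 5 concentrations. Exposure: 48 h. Format: 96-well plates. Endpoint: linear interpolation; highest concentration if not reached. TGI: total growth inhibition.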

Key:
Test in all cases: NCI anticancer screen, dose series, 48 h
[1] = test system: MOLT-4 leukemia
[2] = test system: TK-10 renal
[3] = test system: IGROV1 ovarian
[4] = test system: NCI-H460 lung
[5] = test system: CAKI-1 renal
[6] = test system: U251 CNS
[7] = test system: SN12C renal
[8] = test system: MDA-MB-231 breast
[9] = test system: SK-MEL-28 melanoma
[10] = test system: HCC-2998 colon
[11] = test system: MDA-N

| SMILES | TGI [1] [µM] | TGI [2] [µM] | TGI [3] [µM] | TGI [4] [µM] | TGI [5] [µM] | TGI [6] [µM] | TGI [7] [µM] | TGI [8] [µM] | TGI [9] [µM] | TGI [10] [µM] | TGI [11] [µM] |
| --- | --- | --- | --- | --- | --- | --- | --- | --- | --- | --- | --- |
| NC1CNC(=O)c2c(Cl)sc(Cl)c21 (centres undefined) | > 100 | > 100 | > 100 | > 100 | > 100 | > 100 | > 100 | > 100 | > 100 | > 100 | > 100 |
| Cc1cc2[nH]c3c(C#N)c4c(c(=O)n3c2cc1C)CCCC4 | > 100 | > 100 | > 100 | > 100 | > 100 | > 100 | > 100 | > 100 | > 100 | > 100 | > 100 |
| Nc1ccc(S(=O)(=O)Nc2nc3ccccc3nc2N2CCCCC2)cc1 | > 100 | > 100 | > 100 | > 100 | > 100 | > 100 | > 100 | > 100 | > 100 | > 100 | > 100 |
| NC(=O)c1cc2ccccc2o/c1=N/O | > 100 | > 100 | > 100 | > 100 | 70.3 | > 100 | > 100 | > 100 | > 100 | > 100 | > 100 |
| COc1cc(CN2CCCCC2)cc2cc(C(=O)O)c(=O)oc12 | > 100 | > 100 | > 100 | > 100 | > 100 | > 100 | > 100 | > 100 | > 100 | > 100 | > 100 |
| CC1(C)C=C(S(=O)(=O)c2ccccc2)Oc2ccccc2O1 | 71.9 | 36 | > 100 | > 100 | > 100 | > 100 | > 100 | > 100 | > 100 | 68.5 | > 100 |
| O=C1C=C(c2ccccc2)O/C1=C/C(=O)c1ccc(Cl)cc1 | > 100 | 35.3 | 35.9 | 41.5 | 27.6 | 29.1 | 29.9 | 31.2 | 32.9 | 32.2 | 30.2 |
| O=C1CSC(c2cccs2)N1c1nc2cc3sc(N4C(=O)CSC4c4cccs4)nc3cc2s1 (centres undefined) | > 50 | > 50 | > 50 | > 50 | > 50 | > 50 | > 50 | > 50 | > 50 | > 50 | > 50 |
| COc1c(C)c2nc3ccccc3[nH]c2c2c(=O)ccnc12 | > 100 | > 100 | > 100 | > 100 | > 100 | > 100 | > 100 | > 100 | > 100 | > 100 | > 100 |
